Results reported in patent US20060153781A1, “Repair of dna mutagenic damage” (Novogen Research Pty Ltd, a Corporation, priority 2002, published 2006).
Values joined by “and” are separate entries in the source; they are usually repeats but may differ in a detail not shown here. Equal values may be shown once.

Legend:
Format in all cases: in vivo
p53 in the epidermis = test: P53 staining in skin biopsies of human volunteers following UV irradiation
Procedure: (§1) Equol was applied to the skin of five human volunteers immediately after, and at 4 hours and 6 hours post-UV irradiation. A control lotion was also used containing no equol. Twenty-four hours after UV irradiation, skin biopsies were taken and MT production was measured using immunohistochemistry.
The skin biopsies from the five human volunteers from Example 2 were tested for P53 staining following UV irradiation.

[1] = system: metallothionein (MT) in the epidermis; test: MT production in skin biopsies of human volunteers after UV irradiation (immunohistochemistry); conditions: 24 hrs after 2.5 MED SSUV
Procedure: as §1
Approximately half of the cells in the basal epidermis constitutively expressed MT at baseline, whereas almost none of the cells in the more superficial layers of the epidermis expressed MT. At 24 hrs after exposure to 2.5 MED SSUV, there were apparent differences in the expression of MT in the basal layers of the epidermis between sections treated with equol and those treated with DMSO in base lotion (vehicle). In all 5 participants, the expression of MT was higher in the skin treated with equol, with the magnitude of the difference ranging from +4% to +21%.

[2] = system: cyclobutane pyrimidine dimers (CPD) in skin of hairless mice; test: Induction of epidermal CPD-positive cells in skin of hairless mice exposed to SSUV (immunohistochemistry); conditions: for reduction in the number of CPD compared with control group (vehicle alone): equol lotion 20 μM for 7 days prior and 5 days after SSUV, p<0.05; for CPD + ve cells/linear cm: hairless mice; for reduction of dimers: equol applied immediately after SSUV exposure and continuing for 5 d
Source text: The effect of equol on the induction of CPD was examined in the skin of hairless mice (a standard model for human dermatological investigations) exposed to solar simulated ultraviolet radiation (SSUV). At various time points after SSUV, dorsal skin was excised, fixed for 6 hr in a standard fixing medium (HistoChoice™, Amersco Inc, Solon, Ohio, USA), processed and paraffin-embedded. Pyrimidine dimers were detected immunohistochemically using citric acid antigen retrieval and the H3 anti-pyrimidine dimer antibody. The number of dimer-positive cells was counted manually in 30 fields per mouse, at 40× magnification.

CPDs in the epidermis = test: Cyclobutane pyrimidine dimer formation in skin biopsies of human volunteers after UV irradiation (immunohistochemistry)
Procedure: as §1
The skin biopsies from the five human volunteers from Example 2 were tested for cyclobutane pyrimidine dimer formation using immunohistochemistry.

[3] = 24 hrs after 2.5 MED SSUV, equol 200 μM topical, one row per subject (five volunteers)
[4] = equol 200 μM topical, one row per subject (five volunteers)
[5] = 24 hrs after 2.5 MED SSUV, lotion containing equol 200 μM, one row per subject (five volunteers)

SMILES: Oc1ccc(C2COc3cc(O)ccc3C2)cc1 (stereo not shown) [equol]
- p53 staining, Basal epidermis, % positive cells (p53 in the epidermis; [3]): 22% and 8% and 11% and 6% and 26%
- p53 staining, Basal epidermis, neg (cell count) (p53 in the epidermis; [3]): 161 and 172 and 250 and 140 and 118
- p53 staining, Basal epidermis, pos (cell count) (p53 in the epidermis; [3]): 46 and 15 and 31 and 9 and 41
- p53 staining, Total epidermis, % positive cells (p53 in the epidermis; [3]): 26% and 21% and 9% and 4% and 25%
- p53 staining, Total epidermis, neg (cell count) (p53 in the epidermis; [3]): 270 and 337 and 500 and 287 and 227
- p53 staining, Total epidermis, pos (cell count) (p53 in the epidermis; [3]): 94 and 87 and 50 and 13 and 76
- p53 staining, Upper epidermis, % positive cells (p53 in the epidermis; [3]): 31% and 30% and 7% and 3% and 24%
- p53 staining, Upper epidermis, neg (cell count) (p53 in the epidermis; [3]): 109 (2×) and 165 and 250 and 147
- p53 staining, Upper epidermis, pos (cell count) (p53 in the epidermis; [3]): 48 and 72 and 19 and 4 and 35
- percentage of p53 expression in upper and/or basal epidermis (in words) (p53 in the epidermis; 24 hrs after UV exposure, equol treated vs vehicle): reduced in four out of five equol treated subjects
- reduction of percentage of p53 staining compared with vehicle controls (p53 in the epidermis; subjects N13PDO and N14GBO, 24 hrs after UV exposure, 'generally'): more than 50%
- expression of MT in skin treated with equol vs vehicle (in words) ([1]; all 5 participants): higher
- MT staining, Basal epidermis, % positive cells [1, 4]: 76% and 59% and 69% and 77% and 60%
- MT staining, Basal epidermis, neg (cell count) [1, 4]: 118 and 188 and 239 and 154 and 157
- MT staining, Basal epidermis, pos (cell count) [1, 4]: 380 and 271 and 531 and 522 and 233
- MT staining, Total epidermis, % positive cells [1, 4]: 56% and 50% and 63% and 62% and 51%
- MT staining, Total epidermis, neg (cell count) [1, 4]: 303 and 270 and 315 and 323 and 225
- MT staining, Total epidermis, pos (cell count) [1, 4]: 382 and 271 and 539 and 527 and 234
- MT staining, Upper epidermis, % positive cells [1, 4]: 1% (2×) and 0% and 10% and 3%
- MT staining, Upper epidermis, neg (cell count) [1, 4]: 185 and 82 and 76 and 169 and 68
- MT staining, Upper epidermis, pos (cell count) [1, 4]: 2 and 0 and 8 and 5 and 1
- reduction in the number of CPD compared with control group (vehicle alone) ([2]; 1 hour after SSUV): 54%
- CPD + ve cells/linear cm ([2]; 1 hr post-SSUV, equol lotion 20 μM daily for 7 days prior to and following 1×3 MED SSUV): 238 ± 22 cells/linear cm
- reduction of dimers ([2]; 1 day post-irradiation): 23%
- reduction in the number of CPD compared with control group (vehicle alone) ([2]; 24 hours after SSUV): 50%
- CPD + ve cells/linear cm ([2]; 24 hr post-SSUV, equol lotion 20 μM daily for 7 days prior to and following 1×3 MED SSUV): 167 ± 17 cells/linear cm
- reduction in the number of CPD compared with control group (vehicle alone) ([2]; 48 hours after SSUV): 26%
- reduction of dimers ([2]; 2 d post-irradiation, data not shown): 42%
- effect on dimer induction and repair (in words) ([2]; equol lotion 20 μM daily for 7 days prior to and following 1×3 MED SSUV): reduce the initial induction of dimers, and to enhance the rate of their repair
- CPD staining, Basal epidermis, % positive cells (CPDs in the epidermis; [5]): 15% and 0% and 10% and 25% (2×)
- CPD staining, Basal epidermis, neg (cell count) (CPDs in the epidermis; [5]): 94 and 279 and 181 and 134 and 125
- CPD staining, Basal epidermis, pos (cell count) (CPDs in the epidermis; [5]): 16 and 1 and 21 and 44 and 41
- CPD staining, Total epidermis, % positive cells (CPDs in the epidermis; [5]): 19% and 5% and 25% and 31% (2×)
- CPD staining, Total epidermis, neg (cell count) (CPDs in the epidermis; [5]): 164 and 349 and 279 and 213 and 188
- CPD staining, Total epidermis, pos (cell count) (CPDs in the epidermis; [5]): 39 and 18 and 92 and 94 and 85
- CPD staining, Upper epidermis, % positive cells (CPDs in the epidermis; [5]): 25% and 20% and 42% and 39% and 41%
- CPD staining, Upper epidermis, neg (cell count) (CPDs in the epidermis; [5]): 70 (2×) and 98 and 79 and 63
- CPD staining, Upper epidermis, pos (cell count) (CPDs in the epidermis; [5]): 23 and 17 and 71 and 50 and 44
- CPD-positive cells, equol lotion vs DMSO in base lotion (vehicle) (in words) (CPDs in the epidermis; 24 hrs after UV exposure, 4 out of 5 participants): proportionally less CPD-positive cells
- CPD damage, data from all participants pooled (in words) (CPDs in the epidermis; at 24 hours, pooled participants): moderately lower levels of CPD damage
